Measurements taken from US20260297081A1, “COMPOUNDS AND METHODS OF TREATING CANCERS” (Cullgen Inc., priority 2023, published 2026).

Experiments:
CDK4 = CDK4 (Homo sapiens, UniProt P11802+Q16531); experiment: HiBiT detection of HiBiT-tagged CDK4 protein level in MCF7 cells, 16 hours (Table 8); type: cell-based; design: expressed in transfected cells; host or cells: MCF7; settings: MCF7 cells stably expressing HiBiT tagged target proteins; for activity at 0.01 µM: 10 nM, read-out: % CDK4 Relative Level (10 nM); for activity at 0.1 µM: 100 nM, read-out: % CDK4 Relative Level (100 nM)
Description: HiBiT detection system quantitatively measures total amounts of HiBiT-tagged proteins using a luminescent based method. MCF7 cells stably expressing HiBiT tagged target proteins were treated with heterobifunctional compounds at indicated concentrations for 16 hours, then lysed with Nano-Glo HiBiT Lytic detection reagents.

MCF7 cells = experiment: Anti-proliferation (viability) of MCF7 cells (Table 7, FIG. 2B); type: cell-based; settings: Homo sapiens, MCF7, MCF7 cells, 3-6 days, 10-point serial dilution; read-out: GI IC50 in MCF-7

CDK4, sequence (P11802 whole entry): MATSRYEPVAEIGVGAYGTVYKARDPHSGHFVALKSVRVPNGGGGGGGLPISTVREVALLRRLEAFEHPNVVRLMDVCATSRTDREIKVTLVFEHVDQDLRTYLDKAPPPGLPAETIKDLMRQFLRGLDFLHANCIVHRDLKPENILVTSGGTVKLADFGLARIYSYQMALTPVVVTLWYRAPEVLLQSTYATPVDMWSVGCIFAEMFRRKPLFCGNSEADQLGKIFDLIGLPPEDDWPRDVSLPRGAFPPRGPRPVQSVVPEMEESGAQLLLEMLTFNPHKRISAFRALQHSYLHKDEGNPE
CDK4, sequence (P24385 whole entry partner): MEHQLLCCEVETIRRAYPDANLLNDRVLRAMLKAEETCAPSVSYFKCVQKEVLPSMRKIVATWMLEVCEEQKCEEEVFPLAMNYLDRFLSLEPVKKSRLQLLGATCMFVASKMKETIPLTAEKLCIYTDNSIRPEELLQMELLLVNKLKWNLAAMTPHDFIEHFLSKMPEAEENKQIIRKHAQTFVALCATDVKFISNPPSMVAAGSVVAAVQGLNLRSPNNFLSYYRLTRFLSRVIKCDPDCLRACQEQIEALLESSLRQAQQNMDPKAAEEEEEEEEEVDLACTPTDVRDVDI
CDK4, sequence (Q16531 2-1140 limits assumed): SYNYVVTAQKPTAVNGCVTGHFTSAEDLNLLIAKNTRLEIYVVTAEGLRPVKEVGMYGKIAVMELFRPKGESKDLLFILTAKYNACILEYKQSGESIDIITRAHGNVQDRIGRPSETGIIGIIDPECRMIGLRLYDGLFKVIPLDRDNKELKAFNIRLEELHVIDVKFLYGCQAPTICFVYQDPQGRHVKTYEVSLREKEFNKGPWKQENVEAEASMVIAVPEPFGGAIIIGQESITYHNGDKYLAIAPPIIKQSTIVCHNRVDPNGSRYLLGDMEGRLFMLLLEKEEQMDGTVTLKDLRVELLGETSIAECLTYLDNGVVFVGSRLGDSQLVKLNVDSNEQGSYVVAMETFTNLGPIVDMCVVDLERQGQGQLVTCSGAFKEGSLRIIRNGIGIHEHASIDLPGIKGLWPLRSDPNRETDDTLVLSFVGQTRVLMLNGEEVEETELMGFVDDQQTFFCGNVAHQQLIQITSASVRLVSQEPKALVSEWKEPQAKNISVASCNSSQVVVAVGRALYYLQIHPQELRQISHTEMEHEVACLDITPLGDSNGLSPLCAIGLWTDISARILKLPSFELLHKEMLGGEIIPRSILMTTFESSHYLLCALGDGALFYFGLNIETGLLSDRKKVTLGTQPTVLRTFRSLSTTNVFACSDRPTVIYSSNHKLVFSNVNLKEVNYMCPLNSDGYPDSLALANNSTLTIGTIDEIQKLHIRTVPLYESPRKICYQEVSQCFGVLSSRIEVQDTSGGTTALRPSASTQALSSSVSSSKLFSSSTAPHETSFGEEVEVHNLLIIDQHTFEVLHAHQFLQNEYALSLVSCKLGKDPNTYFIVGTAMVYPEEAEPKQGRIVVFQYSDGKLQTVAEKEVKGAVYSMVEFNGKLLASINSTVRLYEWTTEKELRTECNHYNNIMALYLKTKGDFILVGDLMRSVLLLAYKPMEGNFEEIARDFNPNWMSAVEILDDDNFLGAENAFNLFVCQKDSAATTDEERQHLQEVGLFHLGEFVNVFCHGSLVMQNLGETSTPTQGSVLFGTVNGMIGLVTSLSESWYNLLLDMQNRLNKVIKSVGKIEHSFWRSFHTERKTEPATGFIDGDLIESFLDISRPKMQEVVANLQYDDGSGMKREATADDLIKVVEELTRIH

SMILES | activity at 0.01 µM (CDK4) | activity at 0.1 µM (CDK4) | IC50 (MCF7 cells)
CC(=O)c1c(C)c2cnc(Nc3ccc(N4CCN(C(C)CC(=O)N5CC6(CC(Nc7nc(NC(C)C)ccc7C(=O)Nc7ccc(N(C)C)nn7)C6)C5)CC4)cn3)nc2n(C2CCCC2)c1=O (centres unmarked) [CPD-368, 2-((2-(3-(4-(6-((6-acetyl-8-cyclopentyl-5-methyl-7-oxo-7,8-dihydropyrido[2,3-d]pyrimidin-2-yl)amino)pyridin-3-yl)piperazin-1-yl)butanoyl)-2-azaspiro[3.3]heptan-6-yl)amino)-N-(6-(dimethylamino)pyridazin-3-yl)-6-(isopropylamino)nicotinamide] | 55 to 85% | 55 to 85% | < 50 nM
CC(=O)c1c(C)c2cnc(Nc3ccc(N4CCC5(CC4)CC5C(=O)N4CCC(Nc5nc(NC(C)C)ccc5C(=O)Nc5ccc(N(C)C)nn5)CC4)cn3)nc2n(C2CCCC2)c1=O (centres unmarked) [CPD-407, 2-((1-(6-(6-((6-acetyl-8-cyclopentyl-5-methyl-7-oxo-7,8-dihydropyrido[2,3-d]pyrimidin-2-yl)amino)pyridin-3-yl)-6-azaspiro[2.5]octane-1-carbonyl)piperidin-4-yl)amino)-N-(6-(dimethylamino)pyridazin-3-yl)-6-(isopropylamino)nicotinamide] | 55 to 85% | 55 to 85% | < 50 nM
CC(=O)c1c(C)c2cnc(Nc3ccc(N4CCC5(CC4)CC5C(=O)NC4CC5(C4)CC(Nc4nc(NC(C)C)ccc4C(=O)Nc4ccc(N(C)C)nn4)C5)cn3)nc2n(C2CCCC2)c1=O (centres unmarked) [CPD-414, 6-(6-((6-acetyl-8-cyclopentyl-5-methyl-7-oxo-7,8-dihydropyrido[2,3-d]pyrimidin-2-yl)amino)pyridin-3-yl)-N-(6-((3-((6-(dimethylamino)pyridazin-3-yl)carbamoyl)-6-(isopropylamino)pyridin-2-yl)amino)spiro[3.3]heptan-2-yl)-6-azaspiro[2.5]octane-1-carboxamide] | 55 to 85% | 55 to 85% | < 50 nM
CC(=O)c1c(C)c2cnc(Nc3ccc(CN4CCN(CC(=O)N5CC6(CC(Nc7nc(NC(C)C)ccc7C(=O)Nc7ccc(N(C)C)nn7)C6)C5)CC4)cn3)nc2n(C2CCCC2)c1=O [CPD-422, 2-((2-(2-(4-((6-((6-acetyl-8-cyclopentyl-5-methyl-7-oxo-7,8-dihydropyrido[2,3-d]pyrimidin-2-yl)amino)pyridin-3-yl)methyl)piperazin-1-yl)acetyl)-2-azaspiro[3.3]heptan-6-yl)amino)-N-(6-(dimethylamino)pyridazin-3-yl)-6-(isopropylamino)nicotinamide] | > 85% | 55 to 85% | < 50 nM
CC(=O)c1c(C)c2cnc(Nc3ccc(N4CCC(N(C)CC(=O)N5CC6(CC(Nc7nc(NC(C)C)ccc7C(=O)Nc7ccc(N(C)C)nn7)C6)C5)CC4)cn3)nc2n(C2CCCC2)c1=O [CPD-425, 2-((2-(N-(1-(6-((6-acetyl-8-cyclopentyl-5-methyl-7-oxo-7,8-dihydropyrido[2,3-d]pyrimidin-2-yl)amino)pyridin-3-yl)piperidin-4-yl)-N-methylglycyl)-2-azaspiro[3.3]heptan-6-yl)amino)-N-(6-(dimethylamino)pyridazin-3-yl)-6-(isopropylamino)nicotinamide] | 55 to 85% | 55 to 85% | < 50 nM
CC(=O)c1c(C)c2cnc(Nc3ccc(N4CCN(CC(=O)NCC56CC(Nc7nc(NC(C)C)ccc7C(=O)Nc7ccc(N(C)C)nn7)(C5)C6)CC4)cn3)nc2n(C2CCCC2)c1=O [CPD-429, 2-((3-((2-(4-(6-((6-acetyl-8-cyclopentyl-5-methyl-7-oxo-7,8-dihydropyrido[2,3-d]pyrimidin-2-yl)amino)pyridin-3-yl)piperazin-1-yl)acetamido)methyl)bicyclo[1.1.1]pentan-1-yl)amino)-N-(6-(dimethylamino)pyridazin-3-yl)-6-(isopropylamino)nicotinamide] | 55 to 85% | 55 to 85% | < 50 nM
[2H]C([2H])([2H])Nc1ccc(C(=O)Nc2cc(C)n(C)n2)c(NC2CC3(C2)CN(C(=O)CN2CCC4(CCN(c5ccc(Nc6ncc7c(C)c(C(C)=O)c(=O)n(C8CCCC8)c7n6)nc5)C4)C2)C3)n1 (centres unmarked) [CPD-447, 2-((2-(2-(7-(6-((6-acetyl-8-cyclopentyl-5-methyl-7-oxo-7,8-dihydropyrido[2,3-d]pyrimidin-2-yl)amino)pyridin-3-yl)-2,7-diazaspiro[4.4]nonan-2-yl)acetyl)-2-azaspiro[3.3]heptan-6-yl)amino)-N-(1,5-dimethyl-1H-pyrazol-3-yl)-6-((methyl-d3)amino)nicotinamide] | 55 to 85% | 55 to 85% | < 50 nM
CC(=O)c1c(C)c2cnc(Nc3ccc(N4CCC5(CCN(CC(=O)N6CC7(CC(Nc8nc(NC(C)C)ccc8C(=O)Nc8ccc(N(C)C)nn8)C7)C6)C5)C4)cn3)nc2n(C2CCCC2)c1=O (centres unmarked) [CPD-448, 2-((2-(2-(7-(6-((6-acetyl-8-cyclopentyl-5-methyl-7-oxo-7,8-dihydropyrido[2,3-d]pyrimidin-2-yl)amino)pyridin-3-yl)-2,7-diazaspiro[4.4]nonan-2-yl)acetyl)-2-azaspiro[3.3]heptan-6-yl)amino)-N-(6-(dimethylamino)pyridazin-3-yl)-6-(isopropylamino)nicotinamide] | 55 to 85% | 55 to 85% | < 50 nM
CC(C)Nc1ccc(C(=O)Nc2ccc(N(C)C)nn2)c(NC2CC3(C2)CN(C(=O)CN2CCN(Cc4ccc(Nc5ncc6cc7n(c6n5)C5(CCCCC5)CNC7=O)nc4)CC2)C3)n1 [CPD-557, N-(6-(dimethylamino)pyridazin-3-yl)-6-(isopropylamino)-2-((2-(2-(4-((6-((6′-oxo-7′,8′-dihydro-6′H-spiro[cyclohexane-1,9′-pyrazino[1′,2′:1,5]pyrrolo[2,3-d]pyrimidin]-2′-yl)amino)pyridin-3-yl)methyl)piperazin-1-yl)acetyl)-2-azaspiro[3.3]heptan-6-yl)amino)nicotinamide] | > 85% | > 85% | > 100 nM
CNc1ccc(C(=O)Nc2ccc(N(C)C)nn2)c(NCCC(=O)NC2CCC3(CC2)CC(Nc2ncc4ccc(=O)n(C5CCCC5)c4n2)C3)n1 (centres unmarked) [CPD-673, 2-((3-((2-((8-cyclopentyl-7-oxo-7,8-dihydropyrido[2,3-d]pyrimidin-2-yl)amino)spiro[3.5]nonan-7-yl)amino)-3-oxopropyl)amino)-N-(6-(dimethylamino)pyridazin-3-yl)-6-(methylamino)nicotinamide] | > 85% | > 85% | 
CNc1ccc(C(=O)Nc2ccc(N(C)C)nn2)c(NCCCC(=O)NC2CCC3(CC2)CC(Nc2ncc4ccc(=O)n(C5CCCC5)c4n2)C3)n1 (centres unmarked) [CPD-674, 2-((4-((2-((8-cyclopentyl-7-oxo-7,8-dihydropyrido[2,3-d]pyrimidin-2-yl)amino)spiro[3.5]nonan-7-yl)amino)-4-oxobutyl)amino)-N-(6-(dimethylamino)pyridazin-3-yl)-6-(methylamino)nicotinamide] | > 85% | > 85% | 
CNc1ccc(C(=O)Nc2ccc(N(C)C)nn2)c(NCCCCC(=O)NC2CCC3(CC2)CC(Nc2ncc4ccc(=O)n(C5CCCC5)c4n2)C3)n1 (centres unmarked) [CPD-675, 2-((5-((2-((8-cyclopentyl-7-oxo-7,8-dihydropyrido[2,3-d]pyrimidin-2-yl)amino)spiro[3.5]nonan-7-yl)amino)-5-oxopentyl)amino)-N-(6-(dimethylamino)pyridazin-3-yl)-6-(methylamino)nicotinamide] | > 85% | > 85% | 
CNc1ccc(C(=O)Nc2ccc(N(C)C)nn2)c(NCCCCCC(=O)NC2CCC3(CC2)CC(Nc2ncc4ccc(=O)n(C5CCCC5)c4n2)C3)n1 (centres unmarked) [CPD-676, 2-((6-((2-((8-cyclopentyl-7-oxo-7,8-dihydropyrido[2,3-d]pyrimidin-2-yl)amino)spiro[3.5]nonan-7-yl)amino)-6-oxohexyl)amino)-N-(6-(dimethylamino)pyridazin-3-yl)-6-(methylamino)nicotinamide] | > 85% | > 85% | 
CNc1ccc(C(=O)Nc2ccc(N(C)C)nn2)c(NCCCCCCC(=O)NC2CCC3(CC2)CC(Nc2ncc4ccc(=O)n(C5CCCC5)c4n2)C3)n1 (centres unmarked) [CPD-677, 2-((7-((2-((8-cyclopentyl-7-oxo-7,8-dihydropyrido[2,3-d]pyrimidin-2-yl)amino)spiro[3.5]nonan-7-yl)amino)-7-oxoheptyl)amino)-N-(6-(dimethylamino)pyridazin-3-yl)-6-(methylamino)nicotinamide] | > 85% | > 85% | 
CNc1ccc(C(=O)Nc2ccc(N(C)C)nn2)c(NCCCCCCCC(=O)NC2CCC3(CC2)CC(Nc2ncc4ccc(=O)n(C5CCCC5)c4n2)C3)n1 (centres unmarked) [CPD-678, 2-((8-((2-((8-cyclopentyl-7-oxo-7,8-dihydropyrido[2,3-d]pyrimidin-2-yl)amino)spiro[3.5]nonan-7-yl)amino)-8-oxooctyl)amino)-N-(6-(dimethylamino)pyridazin-3-yl)-6-(methylamino)nicotinamide] | > 85% | > 85% | 
CNc1ccc(C(=O)Nc2ccc(N(C)C)nn2)c(NCCOCCC(=O)NC2CCC3(CC2)CC(Nc2ncc4ccc(=O)n(C5CCCC5)c4n2)C3)n1 (centres unmarked) [CPD-679, 2-((2-(3-((2-((8-cyclopentyl-7-oxo-7,8-dihydropyrido[2,3-d]pyrimidin-2-yl)amino)spiro[3.5]nonan-7-yl)amino)-3-oxopropoxy)ethyl)amino)-N-(6-(dimethylamino)pyridazin-3-yl)-6-(methylamino)nicotinamide] | > 85% | > 85% | 
